Source: PubChem BioAssay AID2060343 (Molecular Pharmacology Branch, DTP, NCI, 2025)

System: 138582-337-R-J1-PDC spheroids with HUVEC/MSC, viability
Assay: Anticancer human tumor 138582-337-R-J1-PDC patient-derived Merkel cell tumor cell line growth inhibition [IpAb]
Settings: for IC50: curve of first compound; for viability, T/C: stronger effect = lower value
Text: Combinatorial screen of targeted agents with ipatasertib and abemaciclib in multi-cell type tumor spheroids
A high-throughput screen of multi-cell type tumor spheroids was designed to identify active combinations of targeted small molecules and ipatasertib or abemaciclib. Complex spheroids include a stromal component modeled by human endothelial cells (HUVEC) and fibroblasts modeled by human mesenchymal stem cells (MSCs). The concentration ranges selected for each drug and investigational agent were based upon clinically achievable concentrations if the clinical Cmax of the agent was known.
Compounds. The drugs and investigational agents: ipatasertib (NSC767898), abemaciclib(NSC768073), selumetinib (NSC741078), trametinib (758246), adavosertib (NSC754352), everolimus (NSC733504), sapanisertib (NSC764658), vemurafenib (NSC761431), venetoclax (NSC766270), copanlisib (NSC809693), apelisib (NSC765974), palbociblib (NSC758247), vemurafenib (NSC761431), dabrafenib (NSC764134), ravoxertinib (NSC781343), BMS-387032 (NSC767048), sotorasib (NSC818433), talazoparib (NSC767125) and afursertib (NSC778305), were obtained from the National Cancer Institute (NCI) Developmental Therapeutics Program Chemical Repository. The FDA-approved anticancer drug set is available from the NCI Developmental Therapeutics Program. […] The stock solutions were prepared in dimethyl sulfoxide (DMSO, Sigma-Aldrich, St. Louis, MO, cat. D2650) at 800-fold the tested concentration and stored at -70 degrees C prior to their use. All drugs and investigational agents were tested over a range starting from a high concentration at or near the clinical Cmax and decreasing in half-log increments. If the clinical Cmax for an agent had not been determined, the highest concentration tested was 10 microM.
NCI60 Cell Culture. NCI60 cell lines were obtained from the NCI Developmental Therapeutics Program Tumor Repository. For each lot of cells, the Repository performed Applied Biosystems AmpFLSTR Identifiler testing with PCR amplification to confirm consistency with the published Identifier STR profile for each cell line. Cells were kept in continuous culture for no more than 20 passages. The optimal seeding densities for each of the cell lines at each time point assessed were determined prior to performing the concentration response studies. Briefly, the NCI60 human tumor lines were grown as monolayers in RPMI 1640 medium supplemented with 10% FBS and 2 mmol/L L-glutamine.
An additional 9 lines were from the NCI60 cell line panel including MDA-MB-231 breast carcinoma, MDA-MB-468 breast carcinoma, MCF7 breast carcinoma, Hs578T breast carcinoma, MALME-3M melanoma, SK-MEL-2 melanoma, SK-OV-3 ovarian carcinoma, DU-145 prostate carcinoma, PC-3 prostate carcinoma, all cell lines along with major genetic alterations are listed on Table 2. Pooled donor human umbilical vein endothelial cells (HUVEC, Lonza, cat. CC-2519) and human mesenchymal stem cells (hMSC, Lonza, cat. PT-2501) were purchased from Lonza (Walkersville, MD).
PDMR cell lines were grown in complete medium (DC medium): Dulbecco's modified Eagle's medium (DMEM)/F12 supplemented with 5% fetal bovine serum (FBS), 2 mM L-glutamine, 100 U/mL penicillin and 100 µg/ml streptomycin, 0.4 µg/ml hydrocortisone, 10 ng/ml epidermal growth factor (EGF) recombinant human protein, 24 µg/mL adenine, and 0.1 mg/mL primocin. During culture from frozen stock vials, PDMR cells were cultured in the same medium containing 10 µM Y-27632 (see Table 3). The PDCs were cultured in complete DMEM/F12 media without 10 microM Y-27632 dihydrochloride for at least two passages prior to the screen. The pooled donor HUVEC and hMSC were cultured in endothelial cell growth medium 2 (PromoCell, Heidelberg, Germany, cat. C-22011) and mesenchymal stem cell growth medium 2 (PromoCell, cat. C-28009), respectively. For all experiments, HUVEC and hMSC were used at passages </=5.
[…]

[1] = second compound 0.1 µM, first compound 0.0316 µM
[2] = second compound 0.1 µM, first compound 0.1 µM
[3] = second compound 0.1 µM, first compound 0.316 µM
[4] = second compound 0.1 µM, first compound 1 µM
[5] = second compound 0.1 µM, first compound 3.16 µM
[6] = second compound 0.1 µM, first compound 10 µM
[7] = second compound 0.316 µM, first compound 0.0316 µM
[8] = second compound 0.316 µM, first compound 0.1 µM
[9] = second compound 0.316 µM, first compound 0.316 µM
[10] = second compound 0.316 µM, first compound 1 µM
[11] = second compound 0.316 µM, first compound 3.16 µM
[12] = second compound 0.316 µM, first compound 10 µM
[13] = second compound 1 µM, first compound 0.0316 µM
[14] = second compound 1 µM, first compound 0.1 µM
[15] = second compound 1 µM, first compound 0.316 µM
[16] = second compound 1 µM, first compound 1 µM
[17] = second compound 1 µM, first compound 3.16 µM
[18] = second compound 1 µM, first compound 10 µM
[19] = second compound 3.16 µM, first compound 0.0316 µM
[20] = second compound 3.16 µM, first compound 0.1 µM
[21] = second compound 3.16 µM, first compound 0.316 µM
[22] = second compound 3.16 µM, first compound 1 µM
[23] = second compound 3.16 µM, first compound 3.16 µM
[24] = second compound 3.16 µM, first compound 10 µM
[25] = second compound 10 µM, first compound 0.0316 µM
[26] = second compound 10 µM, first compound 0.1 µM
[27] = second compound 10 µM, first compound 0.316 µM
[28] = second compound 10 µM, first compound 1 µM
[29] = second compound 10 µM, first compound 3.16 µM
[30] = second compound 10 µM, first compound 10 µM
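Further: spheroids exposed to compounds for seven days.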
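Wherever viability, T/C is given: 100% = DMSO vehicle control viability.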

Row | Structure (SMILES) | IC50 (second compound 0.1 µM) | IC50 (second compound 0.316 µM) | IC50 (second compound 1 µM) | IC50 (second compound 3.16 µM) | IC50 (second compound 10 µM) | viability, T/C [1] | viability, T/C [2] | viability, T/C [3] | viability, T/C [4] | viability, T/C [5] | viability, T/C [6] | viability, T/C [7] | viability, T/C [8] | viability, T/C [9] | viability, T/C [13] | viability, T/C [14] | viability, T/C [19] | viability, T/C [20] | viability, T/C [25] | viability, T/C [26] | also measured
1 | C=CCn1c(=O)c2cnc(Nc3ccc(N4CCN(C)CC4)cc3)nc2n1-c1cccc(C(C)(C)O)n1 + CC(C)NCC(C(=O)N1CCN(c2ncnc3c2C(C)CC3O)CC1)c1ccc(Cl)cc1 | > 10000 nM | > 10000 nM | > 10000 nM | < 31.6 nM | < 31.6 nM | 96.8% | 95.6% | 78% | 99.6% | 99.1% | 134% | 85.5% | 73.6% | 74.7% | 66.7% | 73.5% | 58.1% | 53.6% | 54.6% | 41.5% | viability, T/C [10]: 71.4%; viability, T/C [11]: 94.2%; viability, T/C [12]: 117%; viability, T/C [15]: 54.5%; viability, T/C [16]: 63.6%; viability, T/C [17]: 83.4%; viability, T/C [18]: 89.1%; viability, T/C [21]: 38.9%; viability, T/C [22]: 46.6%; viability, T/C [23]: 74.8%; viability, T/C [24]: 73.8%; viability, T/C [27]: 33.9%; viability, T/C [28]: 42%; viability, T/C [29]: 60.1%; viability, T/C [30]: 55.5%
2 | CC(C)n1nc(-c2ccc3oc(N)nc3c2)c2c(N)ncnc21 + CC(C)NCC(C(=O)N1CCN(c2ncnc3c2C(C)CC3O)CC1)c1ccc(Cl)cc1 | 22.4 nM | 7.57 nM | 1.97 nM | 0.362 nM | < 0.316 nM | 43.8% | 31.9% | – | – | – | – | 37% | 26.8% | – | 27.5% | 22% | 19.6% | 17.5% | 14.4% | 12.3% | viability, T/C (second compound 0.1 µM, first compound 0.000316 µM): 96.3%; viability, T/C (second compound 0.1 µM, first compound 0.001 µM): 89.2%; viability, T/C (second compound 0.1 µM, first compound 0.00316 µM): 70%; viability, T/C (second compound 0.1 µM, first compound 0.01 µM): 64.1%; viability, T/C (second compound 0.316 µM, first compound 0.000316 µM): 67.8%; viability, T/C (second compound 0.316 µM, first compound 0.001 µM): 66%; viability, T/C (second compound 0.316 µM, first compound 0.00316 µM): 61.8%; viability, T/C (second compound 0.316 µM, first compound 0.01 µM): 44.1%; viability, T/C (second compound 1 µM, first compound 0.000316 µM): 63.1%; viability, T/C (second compound 1 µM, first compound 0.001 µM): 54.1%; viability, T/C (second compound 1 µM, first compound 0.00316 µM): 47.5%; viability, T/C (second compound 1 µM, first compound 0.01 µM): 36.2%; viability, T/C (second compound 3.16 µM, first compound 0.000316 µM): 50%; viability, T/C (second compound 3.16 µM, first compound 0.001 µM): 47.3%; viability, T/C (second compound 3.16 µM, first compound 0.00316 µM): 36%; viability, T/C (second compound 3.16 µM, first compound 0.01 µM): 27.3%; viability, T/C (second compound 10 µM, first compound 0.000316 µM): 40.5%; viability, T/C (second compound 10 µM, first compound 0.001 µM): 35.9%; viability, T/C (second compound 10 µM, first compound 0.00316 µM): 31.6%; viability, T/C (second compound 10 µM, first compound 0.01 µM): 21.8%
3 | CC1(C)CCC(CN2CCN(c3ccc(C(=O)NS(=O)(=O)c4ccc(NCC5CCOCC5)c([N+](=O)[O-])c4)c(Oc4cnc5[nH]ccc5c4)c3)CC2)=C(c2ccc(Cl)cc2)C1 + CC(C)NCC(C(=O)N1CCN(c2ncnc3c2C(C)CC3O)CC1)c1ccc(Cl)cc1 | > 10000 nM | > 10000 nM | > 10000 nM | < 31.6 nM | < 31.6 nM | 83.6% | 73.6% | 78.5% | 75.1% | 74.5% | 76.6% | 73% | 69.8% | 67% | 65.2% | 63.5% | 51.2% | 50.7% | 43.7% | 41.7% | viability, T/C [10]: 71.4%; viability, T/C [11]: 63.3%; viability, T/C [12]: 71.2%; viability, T/C [15]: 63.8%; viability, T/C [16]: 60.9%; viability, T/C [17]: 60.2%; viability, T/C [18]: 63.8%; viability, T/C [21]: 46.9%; viability, T/C [22]: 50.3%; viability, T/C [23]: 49.6%; viability, T/C [24]: 32.3%; viability, T/C [27]: 41.3%; viability, T/C [28]: 38.3%; viability, T/C [29]: 47.1%; viability, T/C [30]: 11%
4 | CCCS(=O)(=O)Nc1ccc(F)c(C(=O)c2c[nH]c3ncc(-c4ccc(Cl)cc4)cc23)c1F + CC(C)NCC(C(=O)N1CCN(c2ncnc3c2C(C)CC3O)CC1)c1ccc(Cl)cc1 | > 10000 nM | > 10000 nM | 4180 nM | < 31.6 nM | < 31.6 nM | 87.4% | 86.3% | 88.9% | 89.7% | 102% | 68.2% | 73.2% | 77.2% | 66% | 67.3% | 61.2% | 47.2% | 48.5% | 41.8% | 47.8% | viability, T/C [10]: 68%; viability, T/C [11]: 71.7%; viability, T/C [12]: 51.6%; viability, T/C [15]: 61.3%; viability, T/C [16]: 54.5%; viability, T/C [17]: 58%; viability, T/C [18]: 36%; viability, T/C [21]: 47.1%; viability, T/C [22]: 45%; viability, T/C [23]: 42.5%; viability, T/C [24]: 21.3%; viability, T/C [27]: 43.7%; viability, T/C [28]: 35.7%; viability, T/C [29]: 31.1%; viability, T/C [30]: 1.88%
